Reference: the NIST ThermoML archive (doi:10.1021/je100757w)
Where “and” joins values, the source holds several entries; their conditions need not be identical. Equal entries are not always repeated.

Assay: xn = mol fraction of the nth substance listed
Settings: for surface tension liquid-gas: Ring tensiometer; for mass density: 101.3 kPa, Liquid

COCCOCCOCCOC [2,5,8,11-tetraoxadodecane] + O
Settings	mass density [kg/m3]	surface tension liquid-gas
298.15 K, x1 = 0.0012	–	53.35 mN/m
298.15 K, x1 = 0.0024	–	51.27 mN/m
298.15 K, x1 = 0.0029	–	49.07 mN/m
298.15 K, x1 = 0.0036	–	48.59 mN/m
298.15 K, x1 = 0.0043	–	47.6 mN/m
298.15 K, x1 = 0.0173	1006.22	–
298.15 K, x1 = 0.0206	–	40.6 mN/m
298.15 K, x1 = 0.0375	–	38.88 mN/m
298.15 K, x1 = 0.0695	–	36.2 mN/m
298.15 K, x1 = 0.0905	–	33.99 mN/m
298.15 K, x1 = 0.0914	1019.65	–
298.15 K, x1 = 0.1223	–	33.06 mN/m
298.15 K, x1 = 0.163	–	32.87 mN/m
298.15 K, x1 = 0.1739	1017.24	–
298.15 K, x1 = 0.2731	1009.97	–
298.15 K, x1 = 0.2911	–	32.23 mN/m
298.15 K, x1 = 0.3468	1004.7	–
298.15 K, x1 = 0.3517	–	31.66 mN/m
298.15 K, x1 = 0.4515	998.25	–
298.15 K, x1 = 0.4658	–	31.16 mN/m
298.15 K, x1 = 0.5727	992.4	–
298.15 K, x1 = 0.583	–	30.5 mN/m
298.15 K, x1 = 0.6451	989.7	–
298.15 K, x1 = 0.659	–	30.09 mN/m
298.15 K, x1 = 0.7279	–	29.54 mN/m
298.15 K, x1 = 0.7766	985.98	–
298.15 K, x1 = 0.821	–	29.05 mN/m
298.15 K, x1 = 0.8679	984.02	–
298.15 K, x1 = 0.8823	–	28.52 mN/m
298.15 K, x1 = 0.8977	983.45	–
298.15 K, x1 = 0.9461	–	28.04 mN/m
298.15 K, x1 = 0.9699	981.95	–
298.15 K, x1 = 1	981.23	27.56 mN/m
308.15 K, x1 = 0.0009	–	53.01 mN/m
308.15 K, x1 = 0.0017	–	50.04 mN/m
308.15 K, x1 = 0.0026	–	47.96 mN/m
308.15 K, x1 = 0.0039	–	45.41 mN/m
308.15 K, x1 = 0.0109	–	41.72 mN/m
308.15 K, x1 = 0.0173	1004.32	–
308.15 K, x1 = 0.0218	–	40.14 mN/m
308.15 K, x1 = 0.0353	–	38.28 mN/m
308.15 K, x1 = 0.0882	–	36.04 mN/m
308.15 K, x1 = 0.0914	1016.26	–
308.15 K, x1 = 0.1214	–	34.06 mN/m
308.15 K, x1 = 0.1739	1010.56	–
308.15 K, x1 = 0.1767	–	33.08 mN/m
308.15 K, x1 = 0.2497	–	32.48 mN/m and 31.82 mN/m
308.15 K, x1 = 0.2731	1001.13	–
308.15 K, x1 = 0.34	–	31.44 mN/m
308.15 K, x1 = 0.3468	995.27	–
308.15 K, x1 = 0.4141	–	30.89 mN/m
308.15 K, x1 = 0.4515	988.66	–
308.15 K, x1 = 0.5272	–	30.74 mN/m
308.15 K, x1 = 0.5727	982.92	–
308.15 K, x1 = 0.5837	–	30.15 mN/m
308.15 K, x1 = 0.6451	980.17	–
308.15 K, x1 = 0.7176	–	29.76 mN/m
308.15 K, x1 = 0.7766	976.39	–
308.15 K, x1 = 0.8234	–	29.38 mN/m
308.15 K, x1 = 0.8679	974.51	–
308.15 K, x1 = 0.8977	973.95	–
308.15 K, x1 = 0.9458	–	28.74 mN/m
308.15 K, x1 = 0.9699	972.46	–
308.15 K, x1 = 1	971.71	28.48 mN/m
318.15 K, x1 = 0.0014	–	51.81 mN/m
318.15 K, x1 = 0.0021	–	47.47 mN/m
318.15 K, x1 = 0.0028	–	46.1 mN/m
318.15 K, x1 = 0.0039	–	44.63 mN/m
318.15 K, x1 = 0.01	–	41.37 mN/m
318.15 K, x1 = 0.0173	998.53	–
318.15 K, x1 = 0.0212	–	39.06 mN/m
318.15 K, x1 = 0.034	–	37.85 mN/m
318.15 K, x1 = 0.0543	–	35.26 mN/m
318.15 K, x1 = 0.0791	–	32.67 mN/m
318.15 K, x1 = 0.0849	–	32.5 mN/m
318.15 K, x1 = 0.0914	1007.41	–
318.15 K, x1 = 0.0917	–	32.42 mN/m
318.15 K, x1 = 0.122	–	32.27 mN/m
318.15 K, x1 = 0.1739	1001.45	–
318.15 K, x1 = 0.1848	–	32.14 mN/m
318.15 K, x1 = 0.2728	–	31.26 mN/m
318.15 K, x1 = 0.2731	992.1	–
318.15 K, x1 = 0.3289	–	31.05 mN/m
318.15 K, x1 = 0.3468	986.06	–
318.15 K, x1 = 0.3776	–	30.83 mN/m
318.15 K, x1 = 0.4515	979.25	–
318.15 K, x1 = 0.4688	–	30.3 mN/m
318.15 K, x1 = 0.5727	973.34	–
318.15 K, x1 = 0.6451	970.59	–
318.15 K, x1 = 0.6611	–	29.59 mN/m
318.15 K, x1 = 0.7234	–	29.4 mN/m
318.15 K, x1 = 0.7766	966.82	–
318.15 K, x1 = 0.8102	–	28.99 mN/m
318.15 K, x1 = 0.8562	–	28.68 mN/m
318.15 K, x1 = 0.8679	964.92	–
318.15 K, x1 = 0.8915	–	28.3 mN/m
318.15 K, x1 = 0.8977	964.34	–
318.15 K, x1 = 0.9699	962.91	–
318.15 K, x1 = 1	962.19	27.83 mN/m
